{"source": "patent US10765647B2", "about": "“Composition for treating diabetes, containing extract of yukmijihwangtang” (COMPREHENSIVE AND INTEGRATIVE MEDICINE INSTITUTE, priority 2013, dated 2020)", "key": {"[1]": {"system": "STZ-induced diabetes rat", "assay": "STZ-induced diabetes rats: antioxidative defense system in kidney", "type": "in vivo, Sprague-Dawley (SD) rats", "conditions": "vs STZ control; single treated: metformin 500 mg/kg, YMJHT 400 mg/kg; daily 28 days", "experimental": "(§1) As the laboratory animals, Sprague-Dawley (SD), Slc:SD rats (6-week-old females, SLC, Shizuoka, Japan) were used, an experiment method was briefly illustrated in FIG. 5A, and the design of experimental groups is shown in FIG. 5B.\n(§2) 105 SD rats were purchased, and 21 days after STZ administration, only rats having uniform body weights ([…]) and blood sugar levels (257˜358 mg/dl) were selected. Among those, 8 rats per group were used in the experiment, and separate 8 rats were also prepared as the intact vehicle control (body weight: 200˜262 g; blood sugar level: 88˜100 mg/dl).\n(§3) STZ was diluted with 50 mM citrate buffer (pH 6.0), and the resultant diluent was peritoneally administered once at a dose of 60 mg/kg/5 ml to induce diabetes, and in the intact vehicle control, instead of STZ, the same dose of citrate buffer was solely administered in the same route.\n(8) Change in antioxidative defense system in kidney: lipid peroxidation in kidney (nM of malondialdehyde (MDA)/g protein), endogenous antioxidant—glutathione (GSH) content (nM/g protein), antioxidant enzyme—Changes in catalase and superoxide dismutase (SOD) activities (U/mg protein)"}, "[2]": {"system": "STZ-induced diabetes rat", "assay": "STZ-induced diabetes rats: kidney protecting effect", "type": "in vivo, Sprague-Dawley (SD) rats", "conditions": "vs STZ control; single treated: metformin 500 mg/kg, YMJHT 400 mg/kg; daily 28 days", "experimental": "as §1, §2, §3\n(4) Kidney protecting effect: kidney weights, changes in blood BUN and creatinine, histopathological findings on kidney—numbers of degenerated renal tubules and glomeruli\n(§4) To clarify degrees of inducing diabetes and diabetic complications, blood sugar levels was measured at 21 days after the STZ administration and 28 days after the administration of a candidate material, and then a difference between them was estimated. Also, to minimize a difference between organ weights depending on a body weight, an absolute weight was measured, and then a ratio to the body weight, that is, a relative weight, was calculated."}, "[3]": {"system": "STZ-induced diabetes rat", "assay": "STZ-induced diabetes rats: liver protecting effect", "type": "in vivo, Sprague-Dawley (SD) rats", "conditions": "vs STZ control; single treated: metformin 500 mg/kg, YMJHT 400 mg/kg; daily 28 days", "experimental": "as §1, §2, §3\n(3) Liver protecting effect: changes in the liver weight, blood AST and ALT contents, histopathological findings on the liver—(Degeneration rate of the liver: ratio of degenerated liver cells per mm^2 of hepatocyte, number of liver cells: number of liver cells observed per mm^2 of hepatocyte).\nas §4"}, "[4]": {"system": "STZ-induced diabetes rat", "assay": "STZ-induced diabetes rats: antidiabetic effect (blood sugar, pancreas)", "type": "in vivo, Sprague-Dawley (SD) rats", "conditions": "vs STZ control, YMJHT 400 mg/kg", "experimental": "as §1, §2, §3\n(2) Antidiabetic effect: Change in blood sugar level, morphological change in pancreas tissue—changes in the number and diameter of pancreatic islets, and numerical changes in insulin and glucagon immunoreactive cells\nas §4"}, "[5]": {"system": "STZ-induced diabetes rat", "assay": "STZ-induced diabetes rats: antihyperlipidemic effect", "type": "in vivo, Sprague-Dawley (SD) rats", "conditions": "vs STZ control; single treated: metformin 500 mg/kg, YMJHT 400 mg/kg; daily 28 days", "experimental": "as §1, §2, §3"}, "[6]": {"system": "STZ-induced diabetes rat", "assay": "STZ-induced diabetes rats: immune activity effect (thymus, spleen)", "type": "in vivo, Sprague-Dawley (SD) rats", "conditions": "vs STZ control; single treated: metformin 500 mg/kg, YMJHT 400 mg/kg; daily 28 days", "experimental": "as §1, §2, §3\n(6) Immune activity effect: thymus and spleen weights and histopathological findings—changes in spleen thickness, the number of white pulps and diameter, changes in thymus lobules and cortex thicknesses\nas §4"}, "[7]": {"system": "STZ-induced diabetes rat", "assay": "STZ-induced diabetes rats: body weight and body weight gain", "type": "in vivo, Sprague-Dawley (SD) rats", "conditions": "vs STZ control, YMJHT 400 mg/kg", "experimental": "as §1, §2, §3\n(1) Change in body weight: Body weight gains during diabetes induction and administration of a candidate material for 28 days"}, "[8]": {"assay": "in vivo", "conditions": "male, SD, rat, plasma, po, 500 mg/kg"}, "[9]": {"system": "STZ-induced diabetes rat", "assay": "STZ-induced diabetes rats: ocular protecting effect", "type": "in vivo, Sprague-Dawley (SD) rats", "conditions": "vs STZ control; single treated: metformin 500 mg/kg, YMJHT 400 mg/kg; daily 28 days", "experimental": "as §1, §2, §3"}, "[10]": {"conditions": "before administration, single treated groups: metformin 500 mg/kg"}, "[11]": {"conditions": "single treated: metformin 500 mg/kg, daily 28 days"}}}
{"smiles": "CN(C)C(=N)N=C(N)N", "note": "[metformin]", "values": [{"measurement": "Catalase activity in the renal tissue, change", "setting": "[1]", "value": 48.59, "unit": "%"}, {"measurement": "Content of the endogenous antioxidant in the renal tissue, GSH, change", "setting": "[1]", "value": 64.65, "unit": "%"}, {"measurement": "MDA content in the kidney tissue (lipid peroxidation indicator), change", "setting": "[1]", "value": "−32.56", "unit": "%"}, {"measurement": "SOD activity in the renal tissue, change", "setting": "[1]", "value": 51.47, "unit": "%"}, {"measurement": "Absolute weight of the kidney, change", "setting": "[2]", "value": "−21.29", "unit": "%"}, {"measurement": "Blood BUN content, change", "setting": "[2]", "value": "−31.69", "unit": "%"}, {"measurement": "Blood creatinine content, change", "setting": "[2]", "value": "−31.29", "unit": "%"}, {"measurement": "Number of degenerated glomeruli, change", "setting": "[2]", "value": "−36.94", "unit": "%"}, {"measurement": "Number of degenerated renal tubules, change", "setting": "[2]", "value": "−29.90", "unit": "%"}, {"measurement": "Relative weight of the kidney, change", "setting": "[2]", "value": "−32.41", "unit": "%"}, {"measurement": "Absolute weight of the liver, change", "setting": "[3]", "value": "−14.38", "unit": "%"}, {"measurement": "Blood ALT content, change", "setting": "[3]", "value": "−32.72", "unit": "%"}, {"measurement": "Blood AST content, change", "setting": "[3]", "value": "−32.82", "unit": "%"}, {"measurement": "Hepatic degeneration rate, change", "setting": "[3]", "value": "−29.61", "unit": "%"}, {"measurement": "Number of mean hepatocytes per unit area, change", "setting": "[3]", "value": 60.58, "unit": "%"}, {"measurement": "Relative weight of the liver, change", "setting": "[3]", "value": "−27.69", "unit": "%"}, {"measurement": "Blood sugar level at 21 days after the STZ administration, change", "setting": "[4]; [10]", "value": 1.68, "unit": "%"}, {"measurement": "Blood sugar level at 28 days after the STZ administration, change", "setting": "[4]; [11]", "value": "−27.25", "unit": "%"}, {"measurement": "Blood sugar variation from 21 days after the STZ administration to 28 days after the administration of a candidate material, change", "setting": "[4]; [11]", "value": "−59.39", "unit": "%"}, {"measurement": "Mean diameters of the pancreatic islets, change", "setting": "[4]; [11]", "value": 97.80, "unit": "%"}, {"measurement": "Numbers of insulin immunoreactive cells in the pancreatic islet, change", "setting": "[4]; [11]", "value": 202.99, "unit": "%"}, {"measurement": "Numbers of pancreatic islets per unit area, change", "setting": "[4]; [11]", "value": 120.93, "unit": "%"}, {"measurement": "Numbers of the glucagon immunoreactive cells in the pancreatic islet, change", "setting": "[4]; [11]", "value": "−27.78", "unit": "%"}, {"measurement": "Pancreas absolute weights, change", "setting": "[4]; [11]", "value": 7.95, "unit": "%"}, {"measurement": "Relative pancreas weights with respect to the body weight, change", "setting": "[4]; [11]", "value": "−7.49", "unit": "%"}, {"measurement": "Blood HDL content, change", "setting": "[5]", "value": 27.12, "unit": "%"}, {"measurement": "Blood LDL content, change", "setting": "[5]", "value": "−29.08", "unit": "%"}, {"measurement": "Total cholesterol content in blood, change", "setting": "[5]", "value": "−30.57", "unit": "%"}, {"measurement": "Triglyceride content in blood, change", "setting": "[5]", "value": "−29.72", "unit": "%"}, {"measurement": "Absolute weight of the spleen, change", "setting": "[6]", "value": 31.35, "unit": "%"}, {"measurement": "Absolute weight of the thymus, change", "setting": "[6]", "value": 73.03, "unit": "%"}, {"measurement": "Mean diameter of the white pulp, change", "setting": "[6]", "value": 101.18, "unit": "%"}, {"measurement": "Number of white pulps per unit area (100 mm^2), change", "setting": "[6]", "value": 76.53, "unit": "%"}, {"measurement": "Relative weight of the spleen, change", "setting": "[6]", "value": 12.17, "unit": "%"}, {"measurement": "Relative weight of the thymus, change", "setting": "[6]", "value": 50.71, "unit": "%"}, {"measurement": "Total thickness of the spleen, change", "setting": "[6]", "value": 36.43, "unit": "%"}, {"measurement": "Total thickness of the thymus cortex, change", "setting": "[6]", "value": 78.00, "unit": "%"}, {"measurement": "Total thickness of the thymus lobules, change", "setting": "[6]", "value": 198.88, "unit": "%"}, {"measurement": "Body weight gains during the diabetes induction, change", "setting": "[7]; [10]", "value": 45.45, "unit": "%"}, {"measurement": "Body weight gains during the 28-day administration, change", "setting": "[7]; [11]", "value": 193.31, "unit": "%"}, {"measurement": "Cmax", "setting": "[8]", "value": "20200 ± 3420", "unit": "ng/mL"}, {"measurement": "Lens damage score, change", "setting": "[9]", "value": "−33.33", "unit": "%"}, {"measurement": "Number of blood vessels present in an internal limiting membrane, change", "setting": "[9]", "value": "−44.55", "unit": "%"}, {"measurement": "Observer-based scores for cataract, change", "setting": "[9]", "value": "−38.89", "unit": "%"}, {"measurement": "Quantitative image scores for cataract, change", "setting": "[9]", "value": "−40.56", "unit": "%"}, {"measurement": "Thickness of the damaged part of the lens, change", "setting": "[9]", "value": "−46.34", "unit": "%"}, {"measurement": "Thickness of the inner nuclear layer in the retina, change", "setting": "[9]", "value": 44.29, "unit": "%"}, {"measurement": "Thickness of the plexiform layer in the retina, change", "setting": "[9]", "value": 32.03, "unit": "%"}, {"measurement": "Total thickness of the retina, change", "setting": "[9]", "value": 33.45, "unit": "%"}]}
